The values that follow come from patent US8138189B2, “Substituted benzene compounds as modulators of the glucocorticoid receptor” (Hoffman-La Roche Inc., priority 2009, dated 2012).

Molecules are shown by their SMILES.

In this experiment the target is T1, full length human recombinant glucocorticoid receptor (Homo sapiens, UniProt P04150).
T1 construct: partially purified full length human recombinant glucocorticoid receptor; purchased Panvera/Invitrogen PV4302
T1 sequence (P04150 1-777): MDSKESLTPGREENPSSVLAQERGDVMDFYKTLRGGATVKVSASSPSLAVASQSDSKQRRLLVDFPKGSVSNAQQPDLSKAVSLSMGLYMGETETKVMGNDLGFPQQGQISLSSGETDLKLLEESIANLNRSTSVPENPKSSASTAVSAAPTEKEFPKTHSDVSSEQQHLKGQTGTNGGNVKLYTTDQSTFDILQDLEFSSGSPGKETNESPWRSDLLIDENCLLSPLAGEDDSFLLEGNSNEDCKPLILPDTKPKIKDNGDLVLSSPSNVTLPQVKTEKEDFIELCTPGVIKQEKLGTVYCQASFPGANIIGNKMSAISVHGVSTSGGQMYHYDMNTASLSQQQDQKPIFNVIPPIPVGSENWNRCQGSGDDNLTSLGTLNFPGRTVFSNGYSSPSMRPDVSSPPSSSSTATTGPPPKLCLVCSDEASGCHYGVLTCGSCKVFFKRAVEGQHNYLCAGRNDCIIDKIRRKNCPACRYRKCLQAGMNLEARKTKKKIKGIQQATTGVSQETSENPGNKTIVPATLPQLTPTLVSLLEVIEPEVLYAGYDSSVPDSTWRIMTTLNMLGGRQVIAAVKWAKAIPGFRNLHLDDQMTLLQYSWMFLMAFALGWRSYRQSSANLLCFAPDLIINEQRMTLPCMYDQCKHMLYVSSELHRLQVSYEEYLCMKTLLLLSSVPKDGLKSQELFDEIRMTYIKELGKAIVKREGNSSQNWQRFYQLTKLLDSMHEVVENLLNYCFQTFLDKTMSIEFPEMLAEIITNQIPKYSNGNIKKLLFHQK
In words: Glucocorticoid Receptor Binding Assay (fluorescence polarization competitor assay, Fluormone GS Far Red tracer). In outline: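 Partially purified full-length recombinant human GR with a stabilizing coactivator peptide was incubated with Fluormone GS Far Red tracer and serially diluted compound for 3 h at 22 °C in the dark, pH 7.4. Fluorescence polarization was read at 610-660 nm. IC50 came from sigmoidal fitting, and Ki from Cheng-Prusoff.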
(Polarisation of emitted light reports the rotation of a fluorescent probe.)
For the compound `CCOC(=O)Cc1ccc(CNC(=O)c2ccc([C@@H](C)[C@@](O)(c3ccnc(Cl)c3)C(F)(F)F)c(Cl)c2)cc1` (stereo in doubt) [Example 42, [4-({3-Chloro-4-[2-(2-chloro-pyridin-4-yl)-3,3,3-trifluoro-2-hydroxy-1-methyl-propyl]-benzoylamino}-methyl)-phenyl]-acetic acid ethyl ester], the Ki was 280 nM.
In the case of `C[C@H](c1ccc(C(=O)NCc2ccc(CC(=O)O)cc2)cc1Cl)[C@@](O)(c1ccnc(Cl)c1)C(F)(F)F` (stereo in doubt) [Example 43, [4-({3-Chloro-4-[2-(2-chloro-pyridin-4-yl)-3,3,3-trifluoro-2-hydroxy-1-methyl-propyl]-benzoylamino}-methyl)-phenyl]-acetic acid], the Ki is 156 nM.
In the case of `C[C@H](c1ccc(-c2nc(C(=O)O)no2)cc1Cl)[C@@](O)(c1ccnc(Cl)c1)C(F)(F)F` (stereo in doubt) [Example 48, 5-{3-Chloro-4-[2-(2-chloro-pyridin-4-yl)-3,3,3-trifluoro-2-hydroxy-1-methyl-propyl]-phenyl}-[1,2,4]oxadiazole-3-carboxylic acid], the Ki was 144 nM.
On to `COC(=O)c1ccc(-c2ccc([C@@H](C)[C@@](O)(c3ccnc(Cl)c3)C(F)(F)F)c(Cl)c2)cc1` (stereo in doubt) [Example 49, 3′-Chloro-4′-[2-(2-chloro-pyridin-4-yl)-3,3,3-trifluoro-2-hydroxy-1-methyl-propyl]-biphenyl-4-carboxylic acid methyl ester], for which the Ki stood at 18.6 nM.
The value for `CCOC(=O)c1cccc(-c2ccc([C@@H](C)[C@@](O)(c3ccnc(Cl)c3)C(F)(F)F)c(Cl)c2)c1` (stereo in doubt) [Example 51, 3′-Chloro-4′-[2-(2-chloro-pyridin-4-yl)-3,3,3-trifluoro-2-hydroxy-1-methyl-propyl]-biphenyl-3-carboxylic acid ethyl ester] was 150 nM.
As for `C[C@H](c1ccc(-c2ccc(C(=O)O)c(F)c2)cc1Cl)[C@@](O)(c1ccnc(Cl)c1)C(F)(F)F` (stereo in doubt) [Example 54, 3′-Chloro-4′-[2-(2-chloro-pyridin-4-yl)-3,3,3-trifluoro-2-hydroxy-1-methyl-propyl]-3-fluoro-biphenyl-4-carboxylic acid], the figure is 29.7 nM; as for `C[C@H](c1ccc(-c2ccc(CCC(=O)O)cc2)cc1Cl)[C@@](O)(c1ccnc(Cl)c1)C(F)(F)F` (stereo in doubt) [Example 55, 3-{3′-Chloro-4′-[2-(2-chloro-pyridin-4-yl)-3,3,3-trifluoro-2-hydroxy-1-methyl-propyl]-biphenyl-4-yl}-propionic acid], 29.4 nM.
`CCOC(=O)c1cccc(-c2ccc([C@@H](C)[C@@](O)(c3ccnc(-c4cccc(C(=O)OCC)c4)c3)C(F)(F)F)c(Cl)c2)c1` (stereo in doubt) [Example 56, 3′-Chloro-4′-{2-[2-(3-ethoxycarbonyl-phenyl)-pyridin-4-yl]-3,3,3-trifluoro-2-hydroxy-1-methyl-propyl}-biphenyl-3-carboxylic acid ethyl ester]: the inhibition constant (Ki) came out at 207 nM.
On to `C[C@H](c1ccc(-c2ccc(C(=O)O)cc2)cc1Cl)[C@@](O)(c1ccnc(-c2ccc(C(=O)O)cc2)c1)C(F)(F)F` (stereo in doubt) [Example 57, 4′-{2-[2-(4-Carboxy-phenyl)-pyridin-4-yl]-3,3,3-trifluoro-2-hydroxy-1-methyl-propyl}-3′-chloro-biphenyl-4-carboxylic acid], for which the Ki was 242 nM.
With `COc1cc(C(=O)O)ccc1Oc1ccc([C@@H](C)[C@@](O)(c2ccnc(Cl)c2)C(F)(F)F)c(Cl)c1` (stereo in doubt) [Example 92, 4-{3-Chloro-4-[2-(2-chloro-pyridin-4-yl)-3,3,3-trifluoro-2-hydroxy-1-methyl-propyl]-phenoxy}-3-methoxy-benzoic acid], the inhibition constant (Ki) is 5.8 nM.
Consider `Cc1cc([C@](O)([C@H](C)c2ccc(OCc3cnn(CC(=O)O)c3)cc2Cl)C(F)(F)F)ccn1` (stereo in doubt) [Example 103, (4-{3-Chloro-4-[3,3,3-trifluoro-2-hydroxy-1-methyl-2-(2-methyl-pyridin-4-yl)-propyl]-phenoxymethyl}-pyrazol-1-yl)-acetic acid], for which the Ki stood at 68.3 nM.
As to `COC(=O)c1cnc(OCc2ccc([C@@H](C)[C@@](O)(c3ccnc(Cl)c3)C(F)(F)F)c(Cl)c2)cn1` (stereo in doubt) [Example 120, 5-{3-Chloro-4-[2-(2-chloro-pyridin-4-yl)-3,3,3-trifluoro-2-hydroxy-1-methyl-propyl]-benzyloxy}-pyrazine-2-carboxylic acid methyl ester], the inhibition constant (Ki) was 9.7 nM.
The value for `C[C@H](c1ccc(COc2cnc(C(=O)O)cn2)cc1Cl)[C@@](O)(c1ccnc(Cl)c1)C(F)(F)F` (stereo in doubt) [Example 121, 5-{3-Chloro-4-[2-(2-chloro-pyridin-4-yl)-3,3,3-trifluoro-2-hydroxy-1-methyl-propyl]-benzyloxy}-pyrazine-2-carboxylic acid] was 18.8 nM; that for `COC(=O)c1ccc(OCc2ccc([C@@H](C)[C@@](O)(c3ccnc(Cl)c3)C(F)(F)F)c(Cl)c2)nn1` (stereo in doubt) [Example 122, 6-{3-Chloro-4-[2-(2-chloro-pyridin-4-yl)-3,3,3-trifluoro-2-hydroxy-1-methyl-propyl]-benzyloxy}-pyridazine-3-carboxylic acid methyl ester] was 10.7 nM.
With `C[C@H](c1ccc(COc2ccc(C(=O)O)nn2)cc1Cl)[C@@](O)(c1ccnc(Cl)c1)C(F)(F)F` (stereo in doubt) [Example 123, 6-{3-Chloro-4-[2-(2-chloro-pyridin-4-yl)-3,3,3-trifluoro-2-hydroxy-1-methyl-propyl]-benzyloxy}-pyridazine-3-carboxylic acid], the Ki is 34.3 nM.
As to `COC(=O)c1cnc(OCc2ccc([C@@H](C)[C@@](O)(c3ccnc(Cl)c3)C(F)(F)F)c(Cl)c2)nc1` (stereo in doubt) [Example 124, 2-{3-Chloro-4-[2-(2-chloro-pyridin-4-yl)-3,3,3-trifluoro-2-hydroxy-1-methyl-propyl]-benzyloxy}-pyrimidine-5-carboxylic acid methyl ester], the Ki came out at 8.8 nM.
On to `C[C@H](c1ccc(COc2ncc(C(=O)O)cn2)cc1Cl)[C@@](O)(c1ccnc(Cl)c1)C(F)(F)F` (stereo in doubt) [Example 125, 2-{3-Chloro-4-[2-(2-chloro-pyridin-4-yl)-3,3,3-trifluoro-2-hydroxy-1-methyl-propyl]-benzyloxy}-pyrimidine-5-carboxylic acid], for which the Ki turned out to be 24.7 nM.
With `COC(=O)c1ccc(OCc2ccc([C@@H](C)[C@@](O)(c3ccnc(Cl)c3)C(F)(F)F)c(Cl)c2)nc1` (stereo in doubt) [Example 126, 6-{3-Chloro-4-[2-(2-chloro-pyridin-4-yl)-3,3,3-trifluoro-2-hydroxy-1-methyl-propyl]-benzyloxy}-nicotinic acid methyl ester], the Ki stood at 8.5 nM.
As for `C[C@H](c1cc(Oc2cnc(C(=O)O)cn2)ccc1Cl)[C@@](O)(c1ccnc(Cl)c1)C(F)(F)F` (stereo in doubt) [Example 137, 5-{4-Chloro-3-[2-(2-chloro-pyridin-4-yl)-3,3,3-trifluoro-2-hydroxy-1-methyl-propyl]-phenoxy}-pyrazine-2-carboxylic acid], the Ki worked out at 1580 nM.
The value for `C[C@H](c1cc(Oc2ccc(C(=O)O)nn2)ccc1Cl)[C@@](O)(c1ccnc(Cl)c1)C(F)(F)F` (stereo in doubt) [Example 139, 6-{4-Chloro-3-[2-(2-chloro-pyridin-4-yl)-3,3,3-trifluoro-2-hydroxy-1-methyl-propyl]-phenoxy}-pyridazine-3-carboxylic acid] was 404 nM; that for `C[C@@H](c1ccc(OCc2ccc(C(=O)O)cc2)cc1Cl)[C@](O)(c1cnc2ccccc2c1)C(F)(F)F` (stereo in doubt) [Example 141, 4-[3-Chloro-4-(3,3,3-trifluoro-2-hydroxy-1-methyl-2-quinolin-3-yl-propyl)-phenoxymethyl]-benzoic acid] was 1.5 nM; that for `COC(=O)C1(c2ccc(COc3ccc([C@H](C)[C@](O)(c4cnc5ccccc5c4)C(F)(F)F)c(Cl)c3)cc2)CC1` (stereo in doubt) [Example 142, 1-{4-[3-Chloro-4-(3,3,3-trifluoro-2-hydroxy-1-methyl-2-quinolin-3-yl-propyl)-phenoxymethyl]-phenyl}-cyclopropanecarboxylic acid methyl ester] was 6.6 nM.
Consider `C[C@@H](c1ccc(OCc2ccc(C3(C(=O)O)CC3)cc2)cc1Cl)[C@](O)(c1cnc2ccccc2c1)C(F)(F)F` (stereo in doubt) [Example 143, 1-{4-[3-Chloro-4-(3,3,3-trifluoro-2-hydroxy-1-methyl-2-quinolin-3-yl-propyl)-phenoxymethyl]-phenyl}-cyclopropanecarboxylic acid], for which the Ki is 4.6 nM.

The Ki is the equilibrium dissociation constant of an inhibitor or competing ligand from its target.
